Data taken from ChEMBL document CHEMBL1133416, “Solid phase synthesis of diamides as potential bone resorption inhibitors” (Bioorg Med Chem Lett, 2000).

How the values were obtained:
Adenosinetriphosphatase [1] = target: T1, Adenosinetriphosphatase (Gallus gallus, UniProt Q9I8A2); test: Compound was tested for in vitro inhibition of osteoclast vacuolar acid pump; format: functional
[2] = Compound was tested at 9 uM for inhibition of V-ATPase mediated proton transport in membrane vesicles derived from chicken medullary bone
Adenosinetriphosphatase [3] = target: T1, Adenosinetriphosphatase; test: Compound was tested for inhibition of osteoclast vacuolar ATPase derived from chicken medullary bone

T1 sequence (Q9I8A2 whole entry): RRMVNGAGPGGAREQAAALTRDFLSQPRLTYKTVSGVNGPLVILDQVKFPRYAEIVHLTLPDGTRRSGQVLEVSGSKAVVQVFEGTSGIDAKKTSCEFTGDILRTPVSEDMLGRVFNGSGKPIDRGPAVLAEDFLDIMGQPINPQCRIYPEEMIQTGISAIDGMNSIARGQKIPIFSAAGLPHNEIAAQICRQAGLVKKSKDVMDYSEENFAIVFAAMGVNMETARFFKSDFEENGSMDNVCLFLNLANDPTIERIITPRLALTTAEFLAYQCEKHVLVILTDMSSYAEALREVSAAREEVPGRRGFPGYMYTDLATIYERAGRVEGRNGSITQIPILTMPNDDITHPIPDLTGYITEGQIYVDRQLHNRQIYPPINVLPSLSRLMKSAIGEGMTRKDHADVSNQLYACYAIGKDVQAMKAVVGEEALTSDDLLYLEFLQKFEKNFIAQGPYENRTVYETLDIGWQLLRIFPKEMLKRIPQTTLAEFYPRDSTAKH

Structure (SMILES)	IC50 (Adenosinetriphosphatase [1])	inhibition [2]	IC50 (Adenosinetriphosphatase [3])
CC1(C)CC(NC(=O)c2cccc(CC(=O)Nc3ccc(Cl)c(Cl)c3)c2)CC(C)(C)N1	4900 nM		
CC1(C)CC(NC(=O)/C=C/C=C/C(=O)Nc2ccc(Cl)c(Cl)c2)CC(C)(C)N1	1500 nM	51%	
CO/C(=C\C=C\c1cc2cc(Cl)c(Cl)cc2[nH]1)C(=O)NC1CC(C)(C)NC(C)(C)C1			49 nM
CO/C1=C\C(C)=C\[C@@H](C)[C@@H](O)[C@@H](C)C/C(C)=C/C=C/[C@H](OC)[C@@H]([C@@H](C)[C@@H](O)[C@H](C)[C@@]2(O)C[C@@H](O)[C@H](C)[C@@H](C(C)C)O2)OC1=O [BAFILOMYCIN A1]			30 nM
